Here are results for 20 molecules from patent US9828352B2, “Phenyl carbamates and their use as inhibitors of the fatty acid amide hydrolase (FAAH) enzyme and modulators of the D3 dopamine receptor (D3DR)” (FONDAZIONE ISTITUTO ITALIANO DI TECNOLOGIA, priority 2013, dated 2017).

One assay has as its target T1, human FAAH-1 (Homo sapiens, UniProt O00519).
T1 construct: expressed in transfected cells; host or cells: Hek293 cells stably transfected with human FAAH-1; membrane preparation
T1 sequence (O00519 1-579): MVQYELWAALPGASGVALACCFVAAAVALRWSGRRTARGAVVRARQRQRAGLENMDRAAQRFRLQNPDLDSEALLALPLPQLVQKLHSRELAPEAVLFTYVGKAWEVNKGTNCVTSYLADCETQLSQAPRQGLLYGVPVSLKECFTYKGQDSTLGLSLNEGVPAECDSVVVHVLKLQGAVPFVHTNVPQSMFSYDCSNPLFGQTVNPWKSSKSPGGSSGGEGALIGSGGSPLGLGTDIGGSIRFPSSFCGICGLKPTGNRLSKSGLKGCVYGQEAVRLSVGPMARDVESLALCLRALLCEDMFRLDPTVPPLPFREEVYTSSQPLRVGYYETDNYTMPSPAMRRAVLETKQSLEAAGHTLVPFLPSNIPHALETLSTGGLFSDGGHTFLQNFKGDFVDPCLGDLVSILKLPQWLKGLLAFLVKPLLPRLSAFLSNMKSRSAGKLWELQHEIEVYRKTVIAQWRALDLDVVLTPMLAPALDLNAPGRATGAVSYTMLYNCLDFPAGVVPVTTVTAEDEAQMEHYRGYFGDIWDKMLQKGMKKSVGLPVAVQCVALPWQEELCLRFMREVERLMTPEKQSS
Nature of the assay: Human recombinant Fatty Acid Amide Hydrolase-1 (FAAH-1) fluorescent assay, Hek293-hFAAH-1 membranes. The class given is biochemical. Conditions: 3 separate experiments, each in triplicate. On the procedure:
Human Recombinant Fatty Acid Amide Hydrolase-1 (FAAH-1) Fluorescent Assay
Hek293 cells stably transfected with human FAAH-1 were maintained in DMEM containing 10% FBS, 1% pen/strep and 500 μg/mL G418 to maintain selective pressure. Cells were scraped off with cold PBS1× pH7.4 from plates and collected by centrifugation (500 g, 10 minutes, 4° C.); cells pellets were re-suspended in homogenizing buffer (20 mM Tris-HCl pH7.4, 0.32M sucrose), disrupted by sonication (10 pulses, 5 times) and centrifuged at 800×g for 15 minutes at 4° C.; the resultant supernatants collected were then centrifuged at 105,000×g for 1 hr at 4° C. and membranes pellets were re-suspended in PBS1× pH7.4.
Protein concentration was measured and samples aliquot stored at −80° C. until use.
The blank (no activity) was prepared using 180 μL of assay buffer without Hek293-hFAAH-1 membrane preparation and 10 μL of DMSO.
After 50 minutes of pre-incubation of compounds with the enzyme at 37° C., the reaction was started by the addition of 10 μL of substrate (AMC Arachidonyl Amide, N.10005098, Cayman Chemical) for 30 min at 37° C. The substrate is prepared in Ethanol in order to achieve the final concentration of 2 μM.
Fluorescence was detected with Tecan Infinite M200 nanoquant (Tecan Group Ltd.) at an excitation wavelength 350 nm and an emission wavelength 460 nm.
(§1) EC50 or IC50 values (concentrations causing half-maximal response or inhibition of control agonist response) were determined by non-linear regression analysis of the Log [concentration]/response curves generated with mean replicate values using a four parameter Hill equation curve fitting with GraphPad Prism 5 (GraphPad Software Inc., CA—USA).

In a further assay the target is T2, human-D3R (Homo sapiens, UniProt P35462).
T2 construct: expressed in transfected cells; host or cells: CHO cell line stably transfected with human D3R
Nature of the assay: D3 Dopamine Receptor (D3dR) cellular assay, cAMP HTRF functional assay in human-D3R expressing CHO cells. It is filed as cell-based. The note with it: for Emax: CHO, 0.5 h, % of 300 nM Dopamine response, read-out: Dopamine D3 % of Agonist Activity; for EC50: cAMP assay, CHO human-D3R, one experiment in duplicate. The procedure: D3 Dopamine Receptor (D3dR) Cellular Assay
Activity on D3R was tested with a cAMP functional assay on a stably transfected human-D3R expressing CHO cell line. On the day of the assay performance the cells were washed twice with PBS (w/o calcium and magnesium) and dislodged with a cell scraper, transferred to PBS, centrifuged and re-suspended in HBSS (w/o calcium and magnesium), supplemented with 1 g/L glucose and […] IBMX. The cell suspension was seeded on a 384 well plate (Greiner) and the assay was performed by adding compounds either test compounds alone (for agonist activity), or with test compound after a pre-incubation with 10 nM Dopamine as a stimulant (for antagonistic activity). After incubation (30 min at RT) the cell stimulation was stopped by adding the detecting reagents (cAMP-XL665 and anti-cAMP cryptate) diluted in lysis buffer. The signal was quantified by Homogenous Time-Resolved Fluorescence (HTRF) on a Perkin Elmer Envision plate reader after one hour of incubation at RT.
as §1

Counter-ions that a name gives are not always drawn.

T2 sequence (P35462 whole entry): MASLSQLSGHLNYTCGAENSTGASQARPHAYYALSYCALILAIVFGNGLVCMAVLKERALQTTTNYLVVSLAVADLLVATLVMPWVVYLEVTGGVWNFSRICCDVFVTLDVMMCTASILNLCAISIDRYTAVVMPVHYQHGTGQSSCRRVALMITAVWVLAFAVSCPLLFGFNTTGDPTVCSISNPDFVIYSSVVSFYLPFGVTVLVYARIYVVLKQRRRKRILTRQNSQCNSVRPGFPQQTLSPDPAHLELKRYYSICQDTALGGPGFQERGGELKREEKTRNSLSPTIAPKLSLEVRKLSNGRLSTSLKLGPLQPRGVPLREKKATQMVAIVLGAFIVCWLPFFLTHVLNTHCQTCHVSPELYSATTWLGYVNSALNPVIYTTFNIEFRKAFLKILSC

Broadly, the IC50 is the concentration at which inhibition is half-maximal. One may read the EC50 as the concentration giving half of the maximal effect. A low value points to higher potency in that assay. As to `O=C(NCCCCN1CCN(c2cccc(Cl)c2Cl)CC1)Oc1cccc(N2CCOCC2)c1` [Example 8, (3-morpholinophenyl) N-[4-[4-(2,3-dichlorophenyl)piperazin-1-yl]butyl] carbamate hydrochloride], the IC50 on human FAAH-1 turned out to be 3.4 nM. Besides, on human-D3R, the Emax is 83% and the EC50 amounted to 35 nM.

Take `O=C(NCCCCN1CCN(c2cccc(Cl)c2Cl)CC1)Oc1cccc(N2CCC(F)(F)CC2)c1` [Example 9, [3-(4,4-difluoro-1-piperidinyl)phenyl] N-[4-[4-(2,3-dichlorophenyl)piperazin-1-yl]butyl]carbamate hydrochloride]: the IC50 on human FAAH-1 is 17 nM. At human-D3R, the Emax is 54.7% and the EC50 was found to be 9.2 nM.

Take `O=C(NCCCCN1CCN(c2cccc(Cl)c2Cl)CC1)Oc1ccc(N2CCC(F)(F)CC2)cc1` [Example 12, [4-(4,4-difluoro-1-piperidinyl)phenyl] N-[4-[4-(2,3-dichlorophenyl)piperazin-1-yl]butyl]carbamate hydrochloride]: on human FAAH-1, the 50% inhibitory concentration (IC50) worked out at 9.9 nM. For the same molecule, at human-D3R, the Emax worked out at 90.7% and the EC50 was found to be 49 nM.

Regarding `Cc1ccccc1N1CCN(CCCNC(=O)Oc2cccc(N3CCOCC3)c2)CC1` [Example 13, (3-morpholino phenyl) N-[3-[4-(o-tolyl)piperazin-1-yl]propyl]carbamate hydrochloride], at human FAAH-1, the IC50 came to 4.4 nM. In addition, at human-D3R, the Emax came out at 59.4% and a half-maximal response (EC50) required 150 nM.

On to `NC(=O)c1cccc(-c2cccc(OC(=O)NCCCCN3CCC(c4ccccc4)CC3)c2)c1` [Example 14, [3-(3-carbamoylphenyl)phenyl] N-[4-(4-phenyl-1-piperidinyl)butyl]carbamate hydrochloride], for which, at human FAAH-1, the IC50 came to 9.6 nM. At human-D3R, the Emax amounted to 74.3% and the 50% effective concentration (EC50) was determined as 36 nM.

For the molecule `Cc1ccccc1N1CCN(CCCNC(=O)Oc2ccc(-c3ccccc3)cc2)CC1` [Example 15, (4-phenylphenyl) N-[3-[4-(o-tolyl)piperazin-1-yl]propyl]carbamate], the IC50 at human FAAH-1 was 4.1 nM. In addition, on human-D3R, the Emax came out at 82% and a half-maximal response (EC50) required 290 nM.

Consider `O=C(NCCCN1CCN(c2ccccc2C(F)(F)F)CC1)Oc1ccc(-c2ccccc2)cc1` [Example 16, (4-phenylphenyl) N-[3-[4-[2-(trifluoromethyl)phenyl]piperazin-1-yl]propyl] carbamate], for which the IC50 at human FAAH-1 amounted to 12 nM. For the same molecule, at human-D3R, the Emax is 95.4% and a half-maximal response (EC50) required 300 nM.

Turning to `O=C(NCCCN1CCN(c2cccc(Cl)c2Cl)CC1)Oc1ccc2c(c1)[nH]c1ccccc12` [Example 17, 9H-carbazol-2-yl N-[3-[4-(2,3-dichlorophenyl)piperazin-1-yl]propyl]carbamate], the IC50 at human FAAH-1 is 4.8 nM. For the same molecule, on human-D3R, the Emax is 91% and a half-maximal response (EC50) required 150 nM.

As for `O=C(NCCCN1CCN(c2ccccc2C(F)(F)F)CC1)Oc1ccc(N2CCC(F)(F)CC2)cc1` [Example 18, [4-(4,4-difluoro-1-piperidinyl)phenyl] N-[3-[4-[2-(trifluoromethyl)phenyl]piperazin-1-yl]propyl]carbamate hydrochloride], on human FAAH-1, the IC50 came out at 28 nM. Moreover, at human-D3R, the Emax was 86% and the EC50 was 190 nM.

For the molecule `NC(=O)c1cccc(-c2ccc(OC(=O)NCCCCN3CCN(c4cccc(Cl)c4Cl)CC3)cc2F)c1` [Example 21, [4-(3-carbamoylphenyl)-3-fluoro-phenyl] N-[4-[4-(2,3-dichlorophenyl)piperazin-1-yl]butyl]carbamate], at human FAAH-1, the IC50 was 0.96 nM. Moreover, the Emax at human-D3R turned out to be 69.4%.

In the case of `O=C(NCCCCN1CCN(c2cccc(Cl)c2Cl)CC1)Oc1ccc(-c2ccccn2)cc1` [Example 24, [4-(2-pyridyl)phenyl] N-[4-[4-(2,3-dichlorophenyl)piperazin-1-yl]butyl]carbamate], the IC50 on human FAAH-1 amounted to 0.21 nM. Also, on human-D3R, the Emax came to 70.4% and a half-maximal effect (EC50) was put at 5.92 nM.

Consider `NC(=O)c1cccc(-c2ccc(OC(=O)NCCCCN3CCN(c4ccccc4)CC3)cc2)c1` [Example 25, [4-(3-carbamoylphenyl)phenyl] N-[4-(4-phenylpiperazin-1-yl)butyl]carbamate], for which the IC50 on human FAAH-1 was 3.5 nM. Further, at human-D3R, the Emax is 87.5% and the EC50 came to 3.6 nM.

For the molecule `O=C(NCCCCN1CCN(c2cccc(Cl)c2Cl)CC1)Oc1ccc2c(c1)[nH]c1ccccc12` [Example 28, 9H-carbazol-2-yl N-[4-[4-(2,3-dichlorophenyl)piperazin-1-yl]butyl]carbamate], on human FAAH-1, the IC50 worked out at 8 nM. At human-D3R, the Emax was 89.7% and the EC50 was found to be 120 nM.

Turning to `COc1ccccc1N1CCN(CCCCNC(=O)Oc2ccc3c(c2)[nH]c2ccccc23)CC1` [Example 33, 9H-carbazol-2-yl N-[4-[4-(2-methoxyphenyl)piperazin-1-yl]butyl]carbamate], the 50% inhibitory concentration (IC50) on human FAAH-1 turned out to be 37 nM. Besides, at human-D3R, the Emax is 65.9% and the response was half-maximal at 12 nM (EC50).

As to `O=C(NCCC(F)CN1CCN(c2cccc(Cl)c2Cl)CC1)Oc1ccc(-c2ccccc2)cc1` (centres unmarked) [Example 36, (4-phenylphenyl) N-[4-[4-(2,3-dichlorophenyl)piperazin-1-yl]-3-fluoro-butyl] carbamate], the 50% inhibitory concentration (IC50) on human FAAH-1 worked out at 1.3 nM. Also, at human-D3R, the Emax came to 87.6% and a half-maximal response (EC50) required 150 nM.

Take `COc1cc(OC(=O)NCCCN2CCN(c3ccccc3OC)CC2)ccc1-c1ccccc1` [Example 37, (3-methoxy-4-phenyl-phenyl) N-[3-[4-(2-methoxyphenyl)piperazin-1-yl]propyl] carbamate hydrochloride]: on human FAAH-1, the IC50 is 7.8 nM. For the same molecule, on human-D3R, the Emax is 73.5% and the concentration for a half-maximal effect (EC50) is 38 nM.

As for `O=C(NCC(CF)N1CCN(c2cccc(Cl)c2Cl)CC1)Oc1ccc(-c2ccccc2)cc1` (centres unmarked) [Example 41, (4-phenylphenyl) N-[2-[4-(2,3-dichlorophenyl)piperazin-1-yl]-3-fluoro-propyl] carbamate hydrochloride], the IC50 on human FAAH-1 is 9.9 nM.

With `COc1ccccc1N1CCN(CCCNC(=O)Oc2ccc(Cc3ccccc3)cc2)CC1` [Example 43, (4-benzylphenyl) N-[3-[4-(2-methoxyphenyl)piperazin-1-yl]propyl]carbamate hydrochloride], the IC50 on human FAAH-1 came out at 18 nM.

In the case of `COc1ccccc1N1CCN(CCCNC(=O)Oc2ccc(C(=O)c3ccccc3)cc2)CC1` [Example 44, (4-benzoylphenyl) N-[3-[4-(2-methoxyphenyl)piperazin-1-yl]propyl]carbamate hydrochloride], the IC50 at human FAAH-1 came to 11 nM.

`COc1ccccc1N1CCN(CCCCNC(=O)Oc2ccc(C(=O)c3ccccc3)cc2)CC1` [Example 45, (4-benzoylphenyl) N-[4-[4-(2-methoxyphenyl)piperazin-1-yl]butyl]carbamate hydrochloride]: the half-maximal inhibitory concentration (IC50) on human FAAH-1 was determined as 5.3 nM. At human-D3R, the Emax worked out at 51.4% and the EC50 came to 29 nM.
